# Assay results: patent US8080379B2, “Branched and multi-chain nucleic acid switches for sensing and screening” (Syracuse University, priority 2004, dated 2011)
# How the values were obtained:
# [1] = H/O conformational equilibrium of the C3 switch by fluorescence; format: physicochemical; conditions: no protein
# Text: Such “molecular beacons” operate on the principle of FRET.
# It is appropriate to examine the two extreme states in FIG. 11 (sequences M1 and M2 in Table 2). This allows evaluation of the position of the K1 equilibrium shift upon changing the sequence. Simply put, the luminescence of pure H and O are known, so their populations in a mixed system are just linear functions of the measured luminescence.
# [2] = biological target: T1, NCp7 (Human immunodeficiency virus type 1 group M subtype B, UniProt P12493); conditions: read-out: Kd′, single binding constant fit of FRET titration; Nt≅10 nM; emission at 517 nm
# Experimental: FRET-monitored titration of the C3 (SEQ ID NO: 7) (Nt≅10 nM). [NCp7] increases left to right, expressed as the ratio Pt/Nt. The emission at 517 nm is reported after subtracting that of the RNase treated sample. […] Uncertainty in Nt limits the precision of this determination.
# A fluorophore is placed at the 5′-end of the chain (*), and a quencher at the location marked Q. The distance between fluorophore and quencher is much larger in H than in O, so H has much stronger fluorescence.
# [3] = biological target: NC (Human immunodeficiency virus type 1 group M subtype B, UniProt P12493); conditions: cited from earlier work
# [4] = biological target: T1, NCp7; conditions: 10 nM concentration of the switch
molecule,measurement,setting,value
"C3: unimolecular bistable RNA/DNA switch, SEQ ID NO: 7, with FAM fluorophore and Dabsyl quencher (GCTATCCACCGATAGCTCCAACACGCUAGCGGUGGCUAGC; RNA/DNA chimera, FAM fluorophore and Dabsyl quencher, positions not given here)",K1 = [O]/[H],[1],0.08
same,Kd,[2],500 nM
c(F-C-dW-R-C-K),"competition with NC for in vitro recognition of its RNA, DNA and protein targets",[3],competes with NC
"M3: tethered duplex of all-DNA chain SEQ ID NO: 3 and DNA/RNA chimeric chain SEQ ID NO: 6 (nucleic acid, chain 1: DNA, backbone not given here; chain 2: chemistry not given here; strands tethered, second strand DNA/RNA chimera) chain 1: GCTATCCACCGATAGCTCACAGCACGACTCAGATGG chain 2: CCATCTGAGTCGTGCACGCUAGCGGUGGCUAGC",time of equilibration with NCp7,[4],within a minute
